According to paper PMC7915026, “Sulfaguanidine Hybrid with Some New Pyridine-2-One Derivatives: Design, Synthesis, and Antimicrobial Activity against Multidrug-Resistant Bacteria as Dual DNA Gyrase and DHFR Inhibitors” (Antibiotics, 2021):
Converted amounts (≈) assume the structure as drawn. Where two headings read alike, the source gives them in different places.

Assays:
[1] = target: S. aureus DNA gyrase (Staphylococcus aureus, UniProt P0A0K8+P20831); assay: In vitro DNA gyrase supercoiling enzymatic assay; format: biochemical
[2] = system: spleen and thymus; assay: In vivo immunomodulation: immune organ weight and indexes; set-up: Spleen index: unit not given here; details: mice
Excerpt: Both the spleen and thymus have important antibacterial and fungal immune organ responses, and any change in weight, and indexes can reflect the level of immune regulation. Additionally, the relative spleen and thymus indexes are important indices for nonspecific immunity and potential immunomodulatory compounds that increase the spleen and thymus weight. This increase is due to immune cells’ stimulation in the spleen and thymus. […]

[3] = system: CD4+ and CD8+ T lymphocytes; assay: In vivo T lymphocyte subsets from peripheral blood, flow cytometry; details: mice
Excerpt: Activation of immune cells as CD4^+ and CD8^+ T cells is one possible mechanism of a drug’s immune stimulus activity. An increase in these cells is thought to be a good indicator of an active immune response to infections. So, our work extended to study the effect of the most promising derivatives (2d, 8, and 11) on T lymphocyte subsets (CD4^+ and CD8^+) from peripheral blood, and determined the relative level in model mice that analyzed by flow cytometry after the period of treating.
(§1) In vitro intracellular killing activities for the most promising six derivatives 2a, 2b, 2d, 3a, 8, and 11 were performed according to reported methods.

[4] = system: P. aeruginosa ATCC 27853; assay: MIC and MBC determination; format: cell-based; details: Pseudomonas aeruginosa, ATCC27853, P. aeruginosa
[5] = system: E. coli ATCC 25922; assay: MIC and MBC determination; format: cell-based; details: Escherichia coli, ATCC25922, E. coli
[6] = system: neutrophils; assay: In vitro intracellular killing, nitro blue tetrazolium (NBT) reduction assay; format: cell-based
Description: One of the broad methods used for determining immune disorders for patients in hospitals is the NBT test to measure their immune responses. The reduction in NBT dye provides information about the phagocytic and intracellular killing functions of neutrophils, which are important for microbiocidal activity. The most promising derivatives (2a, 2b, 2d, 3a, 8, and 11) were evaluated against in vitro intracellular killing activities using a nitro blue tetrazolium (NBT) reduction assay and the obtained results expressed in percentage (%): increasing the percentage led to an improvement in the killing ability of the neutrophils used as innate immunity.
as §1

[7] = system: P. aeruginosa ATCC BAA-2111; assay: MIC and MBC against multidrug-resistant strains; format: cell-based; details: Pseudomonas aeruginosa, ATCCBAA2111, P. aeruginosa ATCC BAA-2111
Excerpt: (§2) Norfloxacin was used as a positive control for the multidrug resistance study.
(§3) The experiment was repeating for three-times.

[8] = system: S. aureus ATCC 43300; assay: MIC and MBC against multidrug-resistant strains; format: cell-based; details: Staphylococcus aureus, ATCC43300, S. aureus ATCC 43300
Excerpt: as §2, §3

[9] = system: S. aureus ATCC 33591; assay: MIC and MBC against multidrug-resistant strains; format: cell-based; details: Staphylococcus aureus, ATCC33591, S. aureus ATCC 33591
Excerpt: as §2, §3

[10] = system: E. coli ATCC BAA-196; assay: MIC and MBC against multidrug-resistant strains; format: cell-based; details: Escherichia coli, ATCCBAA196, E. coli ATCC BAA-196
Excerpt: as §2, §3

[11] = system: P. aeruginosa ATCC 27853; assay: Inhibition zone, paper disk/agar diffusion; format: cell-based; details: P. aeruginosa; Na = no activity
Outline: (§4)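 Norfloxacin was included as a positive control. Compounds diffused into seeded agar, and zones of inhibition were recorded as diameter (mm).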

[12] = system: S. aureus ATCC 29213; assay: Inhibition zone, paper disk/agar diffusion; format: cell-based; details: S. aureus; Na = no activity
Outline: as §4

[13] = system: S. typhi ATCC 6539; assay: Inhibition zone, paper disk/agar diffusion; format: cell-based; details: S. typhi; Na = no activity
Outline: as §4

[14] = system: F. oxysporum (RCMB 008002); assay: Inhibition zone, paper disk/agar diffusion; format: cell-based; details: Na = no activity
Outline: as §4

[15] = system: B. subtilis ATCC 6633; assay: Inhibition zone, paper disk/agar diffusion; format: cell-based; details: B. subtilis; Na = no activity
Outline: as §4

[16] = system: C. albicans (ATCC 10231); assay: Inhibition zone, paper disk/agar diffusion; format: cell-based; details: Na = no activity
Outline: as §4

[17] = system: E. faecalis ATCC 29212; assay: Inhibition zone, paper disk/agar diffusion; format: cell-based; details: E. faecalis; Na = no activity
Outline: as §4

[18] = system: Salmonella typhi (S. typhi ATCC 6539); assay: microbe, parasite or virus in culture; format: cell-based; details: Salmonella enterica, Salmonella typhi
[19] = system: S. aureus ATCC 29213; assay: MIC and MBC determination; format: cell-based; details: S. aureus
[20] = system: E. faecalis ATCC 29212; assay: MIC and MBC determination; format: cell-based; details: Enterococcus faecalis, ATCC29212, E. faecalis
[21] = system: B. subtilis ATCC 6633; assay: MIC and MBC determination; format: cell-based; details: Bacillus subtilis, ATCC6633, B. subtilis
[22] = target: E. coli DHFR (dihydrofolate reductase) (Escherichia coli, UniProt P0ABQ4); assay: In vitro DHFR enzymatic assay; format: biochemical
[23] = system: F. oxysporum (RCMB 008002); assay: MIC and MFC determination; format: cell-based
[24] = system: P. aeruginosa ATCC BAA-2111; assay: Inhibition zone against multidrug-resistant bacteria; format: cell-based; details: MDRB P. aeruginosa ATCC BAA-2111
Excerpt: as §2
(§5) The antimicrobial activity performed at the bacteriology laboratory, Botany and Microbiology Department, Faculty of Science, Al-Azhar University, Cairo, Egypt. The inhibition zone (IZ) of the tested derivatives expressed as the diameter (mm) according to the agar plate diffusion method.

[25] = system: S. aureus ATCC 43300; assay: as above; format: cell-based; details: MDRB S. aureus ATCC 43300
Excerpt: as §2, §5

[26] = system: S. aureus ATCC 33591; assay: as above; format: cell-based; details: MDRB S. aureus ATCC 33591
Excerpt: as §2, §5

[27] = system: E. coli ATCC BAA-196; assay: as above; format: cell-based; details: MDRB E. coli ATCC BAA-196
Excerpt: as §2, §5

[28] = system: C. albicans (ATCC 10231); assay: MIC and MFC determination; format: cell-based

S. aureus DNA gyrase, sequence (P20831 whole entry): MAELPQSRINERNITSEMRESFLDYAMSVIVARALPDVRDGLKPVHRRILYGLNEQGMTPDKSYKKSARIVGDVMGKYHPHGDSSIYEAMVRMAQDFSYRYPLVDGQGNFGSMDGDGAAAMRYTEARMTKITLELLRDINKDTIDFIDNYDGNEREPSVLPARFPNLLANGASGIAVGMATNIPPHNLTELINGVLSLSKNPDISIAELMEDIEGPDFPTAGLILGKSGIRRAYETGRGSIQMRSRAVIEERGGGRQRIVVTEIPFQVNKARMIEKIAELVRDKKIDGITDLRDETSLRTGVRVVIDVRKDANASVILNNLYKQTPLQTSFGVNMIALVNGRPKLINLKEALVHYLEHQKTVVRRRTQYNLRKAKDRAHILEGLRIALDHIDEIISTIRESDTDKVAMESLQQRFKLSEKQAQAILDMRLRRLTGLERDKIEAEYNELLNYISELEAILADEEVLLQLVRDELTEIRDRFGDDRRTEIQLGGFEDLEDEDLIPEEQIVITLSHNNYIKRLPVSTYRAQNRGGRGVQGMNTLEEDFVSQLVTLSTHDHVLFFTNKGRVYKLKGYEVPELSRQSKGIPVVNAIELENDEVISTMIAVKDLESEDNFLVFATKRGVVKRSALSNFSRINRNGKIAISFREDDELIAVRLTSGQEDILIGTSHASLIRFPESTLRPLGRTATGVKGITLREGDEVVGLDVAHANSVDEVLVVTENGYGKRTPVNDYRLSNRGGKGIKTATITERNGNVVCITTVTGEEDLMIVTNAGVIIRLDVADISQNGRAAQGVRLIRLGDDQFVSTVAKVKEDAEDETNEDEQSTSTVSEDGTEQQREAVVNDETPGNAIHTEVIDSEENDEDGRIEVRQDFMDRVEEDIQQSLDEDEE
S. aureus DNA gyrase, sequence (P0A0K8 whole entry): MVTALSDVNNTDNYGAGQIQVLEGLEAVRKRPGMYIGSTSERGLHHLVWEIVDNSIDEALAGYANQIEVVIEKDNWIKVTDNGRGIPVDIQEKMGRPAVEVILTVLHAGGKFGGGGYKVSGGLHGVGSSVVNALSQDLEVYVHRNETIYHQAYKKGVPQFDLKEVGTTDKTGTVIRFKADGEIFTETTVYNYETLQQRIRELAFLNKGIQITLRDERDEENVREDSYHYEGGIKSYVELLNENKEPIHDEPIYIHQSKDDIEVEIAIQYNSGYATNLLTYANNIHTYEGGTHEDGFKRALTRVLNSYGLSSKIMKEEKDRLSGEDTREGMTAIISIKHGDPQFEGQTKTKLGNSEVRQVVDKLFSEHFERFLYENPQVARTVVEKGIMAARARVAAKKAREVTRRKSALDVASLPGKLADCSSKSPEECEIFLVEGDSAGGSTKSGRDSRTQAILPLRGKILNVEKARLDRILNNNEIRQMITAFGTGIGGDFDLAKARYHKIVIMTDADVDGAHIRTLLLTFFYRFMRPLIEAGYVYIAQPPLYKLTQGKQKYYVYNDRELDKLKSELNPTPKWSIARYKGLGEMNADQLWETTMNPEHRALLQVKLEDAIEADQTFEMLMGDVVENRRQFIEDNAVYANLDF
E. coli DHFR (dihydrofolate reductase), sequence (P0ABQ4 whole entry): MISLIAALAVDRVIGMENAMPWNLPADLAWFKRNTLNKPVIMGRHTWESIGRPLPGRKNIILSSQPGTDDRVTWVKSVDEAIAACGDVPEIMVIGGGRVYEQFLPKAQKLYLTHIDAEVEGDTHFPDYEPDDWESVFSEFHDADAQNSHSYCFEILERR

SMILES: Cc1cc(C)n(-c2ccc(S(=O)(=O)NC(=N)N)cc2)c(=O)c1C#N [Compound 8, N-Carbamimidoyl-4-(3-cyano-4,6-dimethyl-2-oxopyridin-1(2H)-yl) benzenesulfonamide]
- IC50 [1]: 39.1 ± 1.72 µM
- Spleen index [2]: 0.010 ± 0.00
- Spleen weight [2]: 200 ± 0.025 mg
- Thymus index [2]: 0.537 ± 0.14 mg/g
- Thymus weight [2]: 13.42 ± 0.46 mg
- T cells CD4+ [3]: 78.70 ± 0.56%
- T cells CD8+ [3]: 18.44 ± 0.2%
- MBC ([4]; read-out: MBC): 172 ± 1.95 µM (≈ 59.4 µg/mL)
- MIC ([4]; read-out: MIC): 90.5 ± 1.07 µM (≈ 31.3 µg/mL)
- MBC ([5]; read-out: MBC): 36.2 ± 0.42 µM (≈ 12.5 µg/mL)
- MIC ([5]; read-out: MIC): 22.6 ± 0.42 µM (≈ 7.81 µg/mL)
- Intracellular Killing Activity [6]: 136.5 ± 0.3%
- MBC ([7]; read-out: MBC): 45.2 ± 0.87 µM (≈ 15.6 µg/mL)
- MIC ([7]; read-out: MIC): 22.6 ± 0.98 µM (≈ 7.81 µg/mL)
- MBC ([8]; read-out: MBC): 34.36 ± 0.24 µM (≈ 11.9 µg/mL)
- MIC ([8]; read-out: MIC): 18.1 ± 0.84 µM (≈ 6.25 µg/mL)
- MBC ([9]; read-out: MBC): 46.3 ± 0.58 µM (≈ 16 µg/mL)
- MIC ([9]; read-out: MIC): 25.7 ± 0.36 µM (≈ 8.88 µg/mL)
- MBC ([10]; read-out: MBC): 53.56 ± 0.41 µM (≈ 18.5 µg/mL)
- MIC ([10]; read-out: MIC): 26.8 ± 0.65 µM (≈ 9.25 µg/mL)
- Mean Diameter of the Inhibition Zone [11]: 25 ± 0.85 mm
- Mean Diameter of the Inhibition Zone [12]: 26 ± 0.14 mm
- Mean Diameter of the Inhibition Zone [13]: 23 ± 0.11 mm
- Mean Diameter of the Inhibition Zone [14]: 20 ± 0.82 mm
- Mean Diameter of the Inhibition Zone [15]: 27 ± 0.50 mm
- Mean Diameter of the Inhibition Zone [16]: 24 ± 0.30 mm
- Mean Diameter of the Inhibition Zone [17]: 25 ± 0.33 mm
- MBC ([18]; read-out: MBC): 19.19 ± 0.14 µM (≈ 6.63 µg/mL)
- MIC ([18]; read-out: MIC): 11.3 ± 0.75 µM (≈ 3.9 µg/mL)
- MBC [19]: 10.71 ± 0.36 µM (≈ 3.7 µg/mL)
- MIC [19]: 5.64 ± 0.58 µM (≈ 1.95 µg/mL)
- MBC ([19]; Staphylococcus aureus, ATCC29213, read-out: MBC): 10.7 µM (≈ 3.7 µg/mL)
- MIC ([19]; Staphylococcus aureus, ATCC29213, read-out: MIC): 5.64 µM (≈ 1.95 µg/mL)
- MBC ([20]; read-out: MBC): 19.19 ± 0.18 µM (≈ 6.63 µg/mL)
- MIC ([20]; read-out: MIC): 11.3 ± 0.52 µM (≈ 3.9 µg/mL)
- MBC ([21]; read-out: MBC): 30.6 ± 1.78 µM (≈ 10.6 µg/mL)
- MIC ([21]; read-out: MIC): 16.1 ± 0.54 µM (≈ 5.57 µg/mL)
- IC50 [22]: 12.3 ± 0.73 µM
- MFC/MIC [23]: <2
- MFC ([23]; Fusarium oxysporum, RCMB008002, read-out: MFC): 136 ± 1.98 µM (≈ 46.9 µg/mL)
- MIC ([23]; Fusarium oxysporum, RCMB008002, read-out: MIC): 90.48 ± 0.84 µM (≈ 31.3 µg/mL)
- Mean Diameter of Inhibition Zone [24]: 21 ± 0.63 mm
- Mean Diameter of Inhibition Zone [25]: 22 ± 0.5 mm
- Mean Diameter of Inhibition Zone [26]: 15 ± 0.33 mm
- Mean Diameter of Inhibition Zone [27]: 20 ± 0.74 mm
- MFC/MIC [28]: <2
- MFC ([28]; Candida albicans, ATCC10231, read-out: MFC): 81.4 ± 0.84 µM (≈ 28.1 µg/mL)
- MIC ([28]; Candida albicans, ATCC10231, read-out: MIC): 45.2 ± 0.54 µM (≈ 15.6 µg/mL)
